Measurements from PubChem BioAssay AID328 (DTP/NCI, 2004).
“And” between values parts separate entries of the source, which are not always exact repeats. Identical values can stand only once. Toxic doses and inconclusive results are not listed.

Test system: BDF1 mice, P388 leukemia ip, median survival T/C
Assay: NCI In Vivo Anticancer Drug Screen. Data for tumor model P388 Leukemia (intraperitoneal) in B6D2F1 (BDF1) mice
Conditions: endpoint: median survival time, higher = longer survival
Summary of the method: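 Vehicle-dosed animals serve as the reference; survival of compound-dosed, tumour-implanted mice is divided by it.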

[1] = dose: 100.0 mg/kg/injection, schedule: Q01DX009 (ip), vehicle: saline with Tween-80
[2] = dose: 100.0 mg/kg/injection, schedule: Q04DX003 (ip), vehicle: saline with Tween-80
[3] = dose: 200.0 mg/kg/injection, schedule: Q01DX009 (ip), vehicle: saline with Tween-80
[4] = dose: 200.0 mg/kg/injection, schedule: Q04DX003 (ip), vehicle: saline with Tween-80
[5] = dose: 400.0 mg/kg/injection, schedule: Q01DX009 (ip), vehicle: saline with Tween-80
[6] = dose: 400.0 mg/kg/injection, schedule: Q04DX003 (ip), vehicle: saline with Tween-80
[7] = dose: 50.0 mg/kg/injection, schedule: Q01DX009 (ip), vehicle: saline with Tween-80
[8] = dose: 100.0 mg/kg/injection, schedule: Q04DX003 (ip), vehicle: saline
[9] = dose: 200.0 mg/kg/injection, schedule: Q04DX003 (ip), vehicle: saline

## CCOC(=O)CCC(C(=O)OCC)C(=O)OCC
[1]
  T/C: 107 % of control
[2]
  T/C: 91 % of control
[3]
  T/C: 100 % of control
[4]
  T/C: 100 % of control
[5]
  T/C: 92 % of control
[6]
  T/C: 95 % of control

## COC(=O)/C=C/CCBr
dose: 100.0 mg/kg/injection, schedule: Q04DX002 (ip), vehicle: saline with Tween-80
  T/C: 104 % of control
dose: 200.0 mg/kg/injection, schedule: Q04DX002 (ip), vehicle: saline with Tween-80
  T/C: 109 % of control
dose: 400.0 mg/kg/injection, schedule: Q04DX002 (ip), vehicle: saline with Tween-80
  T/C: 114 % of control

## CCCCC(C)C(=O)CC(SCC)c1ccccc1 (configuration not stated)
[7]
  T/C: 103 % of control
[1]
  T/C: 114 % of control
[3]
  T/C: 105 % of control

## COc1ccc(Cl)cc1NC(=O)Nc1c(C)n(C)n(-c2ccccc2)c1=O
dose: 100.0 mg/kg/injection, schedule: Q01DX001 (ip), vehicle: Klucel (hydroxypropylcellulose) (HPC)
  T/C: 100 % of control
dose: 200.0 mg/kg/injection, schedule: Q01DX001 (ip), vehicle: Klucel (hydroxypropylcellulose) (HPC)
  T/C: 100 % of control
dose: 400.0 mg/kg/injection, schedule: Q01DX001 (ip), vehicle: Klucel (hydroxypropylcellulose) (HPC)
  T/C: 95 % of control

## O=C1c2ccccc2C(=O)c2c(Cl)cccc21
dose: 12.5 mg/kg/injection, schedule: Q01DX009 (ip), vehicle: saline with Tween-80
  T/C: 113 % of control
dose: 25.0 mg/kg/injection, schedule: Q01DX009 (ip), vehicle: saline with Tween-80
  T/C: 100 % of control
[7]
  T/C: 100 % of control
[2]
  T/C: 95 % of control
[4]
  T/C: 100 % of control
[6]
  T/C: 95 % of control

## O=C(O)c1c(Cl)cc(Cl)c(-c2c(Cl)cc(Cl)c(C(=O)O)c2Cl)c1Cl
[1]
  T/C: 112 % of control
[3]
  T/C: 108 % of control
[5]
  T/C: 108 % of control

## O=C1C(NCC(O)CO)=C(N2CC2)C(=O)C(NCC(O)CO)=C1N1CC1 (configuration not stated)
dose: 0.5 mg/kg/injection, schedule: Q01DX009 (ip), vehicle: saline
  T/C: 98 % of control
dose: 1.5 mg/kg/injection, schedule: Q01DX009 (ip), vehicle: saline
  T/C: 233 % of control
dose: 2.0 mg/kg/injection, schedule: Q01DX009 (ip), vehicle: saline
  T/C: 116 % of control and 213 % of control
dose: 4.0 mg/kg/injection, schedule: Q01DX009 (ip), vehicle: saline
  T/C: 241 % of control and 243 % of control
dose: 6.0 mg/kg/injection, schedule: Q01DX009 (ip), vehicle: saline
  T/C: 107 % of control

## Cc1c[n+]([O-])ccc1[N+](=O)[O-]
dose: 25.0 mg/kg/injection, schedule: Q01DX009 (ip), vehicle: saline
  T/C: 100 % of control
dose: 50.0 mg/kg/injection, schedule: Q01DX009 (ip), vehicle: saline
  T/C: 104 % of control
dose: 50.0 mg/kg/injection, schedule: Q04DX003 (ip), vehicle: saline
  T/C: 100 % of control
[8]
  T/C: 90 % of control and 95 % of control
dose: 150.0 mg/kg/injection, schedule: Q04DX003 (ip), vehicle: saline
  T/C: 100 % of control
[9]
  T/C: 86 % of control

## COc1ccccc1Cl
[1]
  T/C: 103 % of control
[2]
  T/C: 116 % of control
[3]
  T/C: 103 % of control
[4]
  T/C: 104 % of control
[5]
  T/C: 96 % of control
[6]
  T/C: 108 % of control

## CCCCCCC(=O)CC(SCC)c1ccccc1Cl (configuration not stated)
[7]
  T/C: 93 % of control
[1]
  T/C: 107 % of control
[3]
  T/C: 121 % of control

## O=C(/C=C/c1cccc([N+](=O)[O-])c1)NCCBr
[8]
  T/C: 90 % of control
[9]
  T/C: 100 % of control
dose: 400.0 mg/kg/injection, schedule: Q04DX003 (ip), vehicle: saline
  T/C: 100 % of control
